One data set concerns the target T1, P450RAI-1 (Homo sapiens, UniProt O43174).
T1 construct: expressed in transfected cells; host or cells: HeLa cells, stably transfected, hygromycin selection
T1 sequence (O43174 1-497): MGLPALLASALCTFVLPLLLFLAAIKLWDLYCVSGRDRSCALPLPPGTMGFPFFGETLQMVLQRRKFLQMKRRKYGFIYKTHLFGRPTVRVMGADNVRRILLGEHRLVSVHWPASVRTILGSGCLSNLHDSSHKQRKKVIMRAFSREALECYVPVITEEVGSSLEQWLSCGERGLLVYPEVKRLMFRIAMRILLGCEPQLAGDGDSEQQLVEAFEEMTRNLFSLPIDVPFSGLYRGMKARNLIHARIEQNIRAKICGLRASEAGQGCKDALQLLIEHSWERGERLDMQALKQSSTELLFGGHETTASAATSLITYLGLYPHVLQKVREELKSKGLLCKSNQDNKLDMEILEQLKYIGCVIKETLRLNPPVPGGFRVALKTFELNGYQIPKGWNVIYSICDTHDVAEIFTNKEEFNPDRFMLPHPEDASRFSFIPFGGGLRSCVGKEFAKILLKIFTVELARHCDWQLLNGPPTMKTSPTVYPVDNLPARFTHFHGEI
As to the kind of experiment: P450RAI-1 cell-based inhibitor assay. The conditions noted are these: P450RAI-1 stably transfected HeLa cells, [3H]-RA metabolism, 3 hours at 37° C.; read-out: P450RAI INHIBITION DATA INTACT HELA IC50. In short, it runs like this: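 HeLa cells stably expressing the enzyme (5×10^5/well) incubated 3 h at 37 °C with 0.05 μCi [3H]-all-trans-RA and compound at 10, 1 or 0.1 μM in triplicate. Water-soluble radioactive metabolites counted by scintillation; IC50 derived manually from log-transformed data.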

The target of data set [1] is T2, RARβ (Homo sapiens, UniProt P10826).
T2 sequence (P10826 183-417 limits assumed): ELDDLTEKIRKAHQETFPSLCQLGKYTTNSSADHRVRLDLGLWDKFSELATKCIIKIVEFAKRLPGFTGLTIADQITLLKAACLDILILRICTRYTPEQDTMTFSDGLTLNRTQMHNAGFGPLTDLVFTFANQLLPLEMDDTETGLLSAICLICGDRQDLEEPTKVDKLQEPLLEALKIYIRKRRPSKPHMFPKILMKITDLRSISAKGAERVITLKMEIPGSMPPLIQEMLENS
As to the kind of experiment: chimeric receptor transactivation assay, RARβ. The data set is classed as cell-based. The conditions noted are these: EC50 line of EC50/(EFFICACY)/Kd, read-out: RAR EC50 β. From the text:
(§1) Assays described below measure the ability of a compound to bind to, and/or activate various retinoid receptor subtypes. When in these assays a compound binds to a given receptor subtype and activates the transcription of a reporter gene through that subtype, then the compound is considered an agonist of that receptor subtype. […] In the below described assays the ability of the compounds to bind to RARα, RARβ, RARγ, RXRα, RXRβ and RXRγ receptors, and the ability or inability of the compounds to activate transcription of a reporter gene through these receptor subtypes can be tested.
(§2) As far as specific assays are concerned, a chimeric receptor transactivation assay which tests for agonist-like activity in the RARα, RARβ, AND RARγ, receptor subtypes, and which is based on work published by Feigner P. L. and Holm M. (1989) Focus, 112 is described in detail in U.S. Pat. No. 5,455,265. The specification of U.S. Pat. No. 5,455,265 is hereby expressly incorporated by reference. The numeric results obtained with several preferred compounds of this invention in this assay are shown below in Table 1.

The target in data set [2] is T3, RARγ (Homo sapiens, UniProt P13631).
T3 sequence (P13631 185-419 limits assumed): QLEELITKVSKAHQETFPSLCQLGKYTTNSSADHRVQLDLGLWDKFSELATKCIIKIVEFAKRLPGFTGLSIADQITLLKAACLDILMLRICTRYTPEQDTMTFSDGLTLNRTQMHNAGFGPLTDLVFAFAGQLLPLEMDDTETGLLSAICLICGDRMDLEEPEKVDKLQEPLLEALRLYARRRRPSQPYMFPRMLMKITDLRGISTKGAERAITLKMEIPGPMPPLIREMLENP
As to the kind of experiment: chimeric receptor transactivation assay, RARγ. The conditions noted are these: EC50 line of EC50/(EFFICACY)/Kd, read-out: RAR EC50 γ. The data set is classed as cell-based.
Excerpt: as §1, §2

Data set [3] has as its target T4, RARα (Homo sapiens, UniProt P10276).
T4 sequence (P10276 183-462 limits assumed): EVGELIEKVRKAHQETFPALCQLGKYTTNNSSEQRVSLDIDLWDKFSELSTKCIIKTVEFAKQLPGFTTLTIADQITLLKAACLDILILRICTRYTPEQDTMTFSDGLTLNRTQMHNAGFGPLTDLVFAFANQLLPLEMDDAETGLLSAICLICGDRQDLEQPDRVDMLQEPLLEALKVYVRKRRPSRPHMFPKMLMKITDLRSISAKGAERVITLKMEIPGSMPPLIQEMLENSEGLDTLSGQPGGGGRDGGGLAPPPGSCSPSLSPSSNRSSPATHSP
Kind of data set: chimeric receptor transactivation assay, RARα. The data set is classed as cell-based. The conditions noted are these: EC50 line of EC50/(EFFICACY)/Kd, read-out: RAR EC50 α.
Excerpt: as §1, §2

The target in data set [4] is T5, RARα (Homo sapiens, UniProt P10276).
T5 sequence (P10276 1-462): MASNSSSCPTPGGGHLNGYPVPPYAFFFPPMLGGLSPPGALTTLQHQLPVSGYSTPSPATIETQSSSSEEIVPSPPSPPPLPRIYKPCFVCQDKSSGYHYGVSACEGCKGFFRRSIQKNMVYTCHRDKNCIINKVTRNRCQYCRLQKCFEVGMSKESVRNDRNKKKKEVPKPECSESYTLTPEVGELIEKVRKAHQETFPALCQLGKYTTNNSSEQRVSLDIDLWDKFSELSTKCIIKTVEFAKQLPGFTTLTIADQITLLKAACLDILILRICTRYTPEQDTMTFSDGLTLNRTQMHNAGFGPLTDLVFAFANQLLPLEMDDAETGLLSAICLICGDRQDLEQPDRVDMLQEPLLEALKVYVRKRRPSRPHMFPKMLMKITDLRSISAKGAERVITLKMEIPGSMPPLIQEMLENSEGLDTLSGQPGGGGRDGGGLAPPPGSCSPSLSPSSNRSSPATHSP
As to the kind of experiment: ligand binding assay, RARα. The conditions noted are these: Kd line of EC50/(EFFICACY)/Kd, read-out: RAR Kd α.
Excerpt: as §1
A holoreceptor transactivation assay and a ligand binding assay which measure the antagonist/agonist like activity of the compounds of the invention, or their ability to bind to the several retinoid receptor subtypes, respectively, are described in published PCT Application No. WO WO93/11755 (particularly on pages 30-33 and 37-41) published on Jun. 24, 1993, the specification of which is also incorporated herein by reference. A detailed experimental procedure for holoreceptor transactivations has been described by Heyman et al. Cell 68, 397-406, (1992); Allegretto et al. J. Biol. Chem. 268, 26625-26633, and Mangelsdorf et al. The Retinoids: Biology, Chemistry and Medicine, pp 319-349, Raven Press Ltd., New York, which are expressly incorporated herein by reference. The results obtained in this assay are expressed in EC50 numbers, as they are also in the chimeric receptor transactivation assay. The results of ligand binding assay are expressed in Kd numbers. (See Cheng et al. Biochemical Pharmacology Vol. 22 pp 3099-3108, expressly incorporated herein by reference.)
The results if the ligand binding assay for several preferred compounds of the invention are included in Table 1.

Data set [5] addresses T6, RARβ (Homo sapiens, UniProt P10826).
T6 sequence (P10826 1-455): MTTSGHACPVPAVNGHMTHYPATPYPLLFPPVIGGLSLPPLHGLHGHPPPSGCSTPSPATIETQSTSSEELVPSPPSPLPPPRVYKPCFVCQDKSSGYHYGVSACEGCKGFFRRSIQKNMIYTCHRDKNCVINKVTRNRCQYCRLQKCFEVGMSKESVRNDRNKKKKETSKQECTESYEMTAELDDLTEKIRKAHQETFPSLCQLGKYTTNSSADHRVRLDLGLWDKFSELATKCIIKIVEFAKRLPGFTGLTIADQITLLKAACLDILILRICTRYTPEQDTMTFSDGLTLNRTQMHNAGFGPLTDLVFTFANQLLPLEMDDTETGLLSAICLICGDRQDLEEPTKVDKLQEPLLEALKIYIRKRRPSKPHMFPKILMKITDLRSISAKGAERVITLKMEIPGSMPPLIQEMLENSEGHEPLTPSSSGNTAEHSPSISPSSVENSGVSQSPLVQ
As to the kind of experiment: ligand binding assay, RARβ. The conditions noted are these: Kd line of EC50/(EFFICACY)/Kd, read-out: RAR Kd β.

The target in data set [6] is T7, RARγ (Homo sapiens, UniProt P13631).
T7 sequence (P13631 1-454): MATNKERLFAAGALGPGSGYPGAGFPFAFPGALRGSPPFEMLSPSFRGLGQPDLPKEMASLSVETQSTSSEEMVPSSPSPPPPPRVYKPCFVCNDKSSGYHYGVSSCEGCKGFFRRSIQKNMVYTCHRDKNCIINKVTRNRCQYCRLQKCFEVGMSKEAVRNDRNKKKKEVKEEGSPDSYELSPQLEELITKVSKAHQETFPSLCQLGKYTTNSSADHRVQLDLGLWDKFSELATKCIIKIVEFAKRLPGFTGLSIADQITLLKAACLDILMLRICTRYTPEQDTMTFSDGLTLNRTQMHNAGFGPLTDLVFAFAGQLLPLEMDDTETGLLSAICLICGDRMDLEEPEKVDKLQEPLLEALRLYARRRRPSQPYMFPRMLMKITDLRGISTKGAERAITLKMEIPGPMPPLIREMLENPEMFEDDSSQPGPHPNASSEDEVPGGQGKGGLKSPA
Kind of data set: ligand binding assay, RARγ. The settings on record: Kd line of EC50/(EFFICACY)/Kd, read-out: RAR Kd γ.

In a further data set the test system is skin of hairless mice. Kind of data set: topical skin irritation test in hairless mice. The data set is classed as in vivo, mouse. The conditions noted are these: topical in acetone, once daily days 1 through 5, mean ±SD, range 0-21. From the text:
Mice were housed individually throughout the dosing period.
Doses are disclosed as nmol/25 g.
The grading scale used is as follows:
Values can range from 0-9.
Values can range from 0-8.

Each structure is given as a SMILES string.

One may read the IC50 as the concentration at which inhibition is half-maximal. The term EC50 denotes the concentration needed to bring the measured effect to its halfway point. Take `CN(C1CC1)C1CCC(C)(C)c2cc(C#Cc3ccc(C(=O)O)c(F)c3)ccc21` (stereo not shown) [Compound 13, 4-[5-(Cyclopropyl-methyl-amino)-8,8-dimethyl-5,6,7,8-tetrahydro-naphthalene-2-yl-ethynyl]-2-fluoro Benzoic Acid]: the IC50 at P450RAI-1 worked out at 3.1 µM. Also, the EC50 at RARβ [1] is 0.0032 µM; at RARγ [2] it was 0.116 µM.
Take `CC1(C)CCC(=O)c2ccc(C#Cc3ccc(C(=O)O)c(F)c3)cc21` [Compound 10, 2-Fluoro-4-(8,8-dimethyl-5-oxo-5,6,7,8-tetrahydro-naphthalen-2yl-ethynyl)benzoic Acid]: the concentration for half-maximal inhibition (IC50) at P450RAI-1 came out at 0.7 µM. The EC50 at RARα [3] was 0.057 µM; at RARβ [1], 0.0003 µM; on RARγ [2], 0.006 µM.
A word on the Kd: it is the equilibrium constant for the complex coming apart. On to `CC1(C)CC(C)(C)c2cc(C#Cc3ccc(CC(=O)O)cc3)cc(C3CC3)c2O1` [Compound 36, [4-(8-Cyclopropyl-2,2,4,4-tetramethyl-chroman-6-yl-ethynyl)phenyl]acetic Acid], for which, at P450RAI-1, the IC50 stood at 0.033 µM. Also, the Kd at RARα [4] stood at 13 µM; at RARβ [5], 4.9 µM; at RARγ [6], 0.492 µM. The entries for the “Cutaneous Toxicity Score (Blackjack Score)” value in the data set with skin of hairless mice (100 nmole (nmol/25 g)) and in the data set on skin of hairless mice (1000 nmole (nmol/25 g)) were 1 ± 1 and 11 ± 0, respectively.

For the origin of these results see patent US6369225B1, “Compounds having activity as inhibitors of cytochrome P450RAI” (Allergan Sales, Inc., priority 2000, dated 2002).
